# Results taken from ChEMBL document CHEMBL5335843, “Application of tobramycin benzyl ether as an antibiotic adjuvant capable of sensitizing multidrug-resistant Gram-negative bacteria to rifampicin” (2024).
# Activity calls are given as the source filed them. No cut-off for these calls is given here.
# Legend:
# [1] = tested on: Escherichia coli; assay: Antibiotic adjuvant activity against multi-drug resistant Escherichia coli clinical isolate 94393 assessed as fractional inhibitory concentration index incubated for 18 hrs in presence of Rifampicin by two fold broth microdilution checkerboard assay; format: functional
# [2] = tested on: Pseudomonas aeruginosa; assay: Antibiotic adjuvant activity against multi-drug resistant Pseudomonas aeruginosa clinical isolate PA259 assessed as minocycline MIC incubated for 18 hrs in presence of minocycline by two fold broth microdilution checkerboard assay; format: functional
# [3] = tested on: Pseudomonas aeruginosa; assay: Antibiotic adjuvant activity against multi-drug resistant Pseudomonas aeruginosa clinical isolate PA259 assessed as rifampicin MIC incubated for 18 hrs in presence of Rifampicin by two fold broth microdilution checkerboard assay; format: functional
# [4] = tested on: Acinetobacter baumannii; assay: Antibiotic adjuvant activity against multi-drug resistant Acinetobacter baumannii clinical isolate 110193 assessed as rifampicin MIC incubated for 18 hrs in presence of Rifampicin by two fold broth microdilution checkerboard assay; format: functional
# [5] = tested on: Pseudomonas aeruginosa; assay: Antibiotic adjuvant activity against multi-drug resistant Pseudomonas aeruginosa clinical isolate PA101243 assessed as fractional inhibitory concentration index incubated for 18 hrs in presence of minocycline by two fold broth microdilution checkerboard assay; format: functional
# [6] = tested on: Pseudomonas aeruginosa; assay: Antibiotic adjuvant activity against multi-drug resistant Pseudomonas aeruginosa clinical isolate PA114228 assessed as fold potentiation incubated for 18 hrs in presence of minocycline by two fold broth microdilution checkerboard assay; format: functional
# [7] = tested on: Escherichia coli; assay: Antibiotic adjuvant activity against multi-drug resistant Escherichia coli clinical isolate EC107115 assessed as inhibition of bacterial growth incubated for 18 hrs in presence of doxycycline by two fold broth microdilution checkerboard assay; format: functional
# [8] = tested on: Pseudomonas aeruginosa; assay: Antibacterial activity against multi-drug resistant Pseudomonas aeruginosa clinical isolate PA264 assessed as inhibition of bacterial growth incubated for 18 hrs by two fold broth microdilution assay; format: functional
# [9] = tested on: Escherichia coli; assay: Antibiotic adjuvant activity against multi-drug resistant Escherichia coli clinical isolate EC94474 assessed as inhibition of bacterial growth incubated for 18 hrs in presence of minocycline by two fold broth microdilution checkerboard assay; format: functional
# [10] = tested on: Pseudomonas aeruginosa; assay: Antibiotic adjuvant activity against multi-drug resistant Pseudomonas aeruginosa clinical isolate PA101243 assessed as fractional inhibitory concentration index incubated for 18 hrs in presence of doxycycline by two fold broth microdilution checkerboard assay; format: functional
# [11] = tested on: Pseudomonas aeruginosa; assay: Antibiotic adjuvant activity against multi-drug resistant Pseudomonas aeruginosa clinical isolate PA264 assessed as doxycycline MIC incubated for 18 hrs in presence of doxycycline by two fold broth microdilution checkerboard assay; format: functional
# [12] = tested on: Pseudomonas aeruginosa; assay: Antibiotic adjuvant activity against multi-drug resistant Pseudomonas aeruginosa clinical isolate PA259 assessed as fold potentiation incubated for 18 hrs in presence of doxycycline by two fold broth microdilution checkerboard assay; format: functional
# [13] = tested on: Acinetobacter baumannii; assay: Antibacterial activity against Acinetobacter baumannii ATCC 17978 assessed as inhibition of bacterial growth incubated for 18 hrs by two fold broth microdilution assay; format: functional
# [14] = tested on: Pseudomonas aeruginosa; assay: Antibiotic adjuvant activity against multi-drug resistant Pseudomonas aeruginosa clinical isolate PA262 assessed as fractional inhibitory concentration index incubated for 18 hrs in presence of doxycycline by two fold broth microdilution checkerboard assay; format: functional
# [15] = tested on: Acinetobacter baumannii; assay: Antibiotic adjuvant activity against multi-drug resistant Acinetobacter baumannii clinical isolate AB027 assessed as fractional inhibitory concentration index incubated for 18 hrs in presence of Rifampicin by two fold broth microdilution checkerboard assay; format: functional
# [16] = tested on: Pseudomonas aeruginosa; assay: Antibiotic adjuvant activity against multi-drug resistant Pseudomonas aeruginosa clinical isolate PA262 assessed as inhibition of bacterial growth incubated for 18 hrs in presence of doxycycline by two fold broth microdilution checkerboard assay; format: functional
# [17] = tested on: Acinetobacter baumannii; assay: Antibiotic adjuvant activity against multi-drug resistant Acinetobacter baumannii clinical isolate LAC-4 assessed as rifampicin MIC incubated for 18 hrs in presence of Rifampicin by two fold broth microdilution checkerboard assay; format: functional
# [18] = tested on: Pseudomonas aeruginosa; assay: Antibiotic adjuvant activity against multi-drug resistant Pseudomonas aeruginosa clinical isolate 101243 assessed as inhibition of bacterial growth incubated for 18 hrs in presence of Rifampicin by two fold broth microdilution checkerboard assay; format: functional
# [19] = tested on: Pseudomonas aeruginosa; assay: Antibiotic adjuvant activity against multi-drug resistant Pseudomonas aeruginosa clinical isolate PA264 assessed as fractional inhibitory concentration index incubated for 18 hrs in presence of Rifampicin by two fold broth microdilution checkerboard assay; format: functional
# [20] = tested on: Pseudomonas aeruginosa; assay: Antibiotic adjuvant activity against multi-drug resistant Pseudomonas aeruginosa clinical isolate PA262 assessed as minocycline MIC incubated for 18 hrs in presence of minocycline by two fold broth microdilution checkerboard assay; format: functional
# [21] = tested on: Pseudomonas aeruginosa; assay: Antibacterial activity against multi-drug resistant Pseudomonas aeruginosa clinical isolate PA259 assessed as inhibition of bacterial growth incubated for 18 hrs by two fold broth microdilution assay; format: functional
# [22] = tested on: Enterococcus faecium; assay: Antibiotic adjuvant activity against Enterococcus faecium 114278 assessed as fold potentiation incubated for 18 hrs in presence of rifampicin by two fold broth microdilution checkerboard assay; format: functional
# [23] = tested on: Pseudomonas aeruginosa; assay: Antibiotic adjuvant activity against multi-drug resistant Pseudomonas aeruginosa clinical isolate PA262 assessed as fold potentiation incubated for 18 hrs in presence of Rifampicin by two fold broth microdilution checkerboard assay; format: functional
# [24] = tested on: Acinetobacter baumannii; assay: Antibiotic adjuvant activity against Acinetobacter baumannii ATCC 17978 assessed as rifampicin MIC incubated for 18 hrs in presence of Rifampicin by two fold broth microdilution checkerboard assay; format: functional
# [25] = tested on: Pseudomonas aeruginosa; assay: Antibiotic adjuvant activity against multi-drug resistant Pseudomonas aeruginosa clinical isolate PA114228 assessed as fractional inhibitory concentration index incubated for 18 hrs in presence of doxycycline by two fold broth microdilution checkerboard assay; format: functional
# [26] = tested on: Pseudomonas aeruginosa; assay: Antibacterial activity against multi-drug resistant Pseudomonas aeruginosa clinical isolate PA101243 assessed as inhibition of bacterial growth incubated for 18 hrs by two fold broth microdilution assay; format: functional
# [27] = tested on: Acinetobacter baumannii; assay: Antibiotic adjuvant activity against multi-drug resistant Acinetobacter baumannii clinical isolate 92247 assessed as inhibition of bacterial growth incubated for 18 hrs in presence of Rifampicin by two fold broth microdilution checkerboard assay; format: functional
# [28] = tested on: Escherichia coli; assay: Antibiotic adjuvant activity against Escherichia coli ATCC 25922 assessed as rifampicin MIC incubated for 18 hrs in presence of Rifampicin by two fold broth microdilution checkerboard assay; format: functional
# [29] = tested on: Pseudomonas aeruginosa; assay: Antibiotic adjuvant activity against multi-drug resistant Pseudomonas aeruginosa clinical isolate PA264 assessed as inhibition of bacterial growth incubated for 18 hrs in presence of Rifampicin by two fold broth microdilution checkerboard assay; format: functional
# [30] = tested on: Pseudomonas aeruginosa; assay: Antibiotic adjuvant activity against multi-drug resistant Pseudomonas aeruginosa clinical isolate PA259 assessed as inhibition of bacterial growth incubated for 18 hrs in presence of minocycline by two fold broth microdilution checkerboard assay; format: functional
# [31] = tested on: Escherichia coli; assay: Antibiotic adjuvant activity against Escherichia coli ATCC 25922 at 8 to 11 ug/ml incubated for 18 hrs in presence of rifampicin and 25 % FBS media by two fold broth microdilution checkerboard assay; format: functional, organism-based; conditions: dose 8-11 µg/ml
# [32] = tested on: Escherichia coli; assay: Antibiotic adjuvant activity against multi-drug resistant Escherichia coli clinical isolate EC107115 assessed as fold potentiation incubated for 18 hrs in presence of doxycycline by two fold broth microdilution checkerboard assay; format: functional
# [33] = tested on: Pseudomonas aeruginosa; assay: Antibiotic adjuvant activity against multi-drug resistant Pseudomonas aeruginosa clinical isolate PA114228 assessed as minocycline MIC incubated for 18 hrs in presence of minocycline by two fold broth microdilution checkerboard assay; format: functional
# [34] = tested on: Acinetobacter baumannii; assay: Antibiotic adjuvant activity against multi-drug resistant Acinetobacter baumannii clinical isolate LAC-4 assessed as fractional inhibitory concentration index incubated for 18 hrs in presence of Rifampicin by two fold broth microdilution checkerboard assay; format: functional
# [35] = tested on: Escherichia coli; assay: Antibiotic adjuvant activity against multi-drug resistant Escherichia coli clinical isolate 94393 assessed as fold potentiation incubated for 18 hrs in presence of Rifampicin by two fold broth microdilution checkerboard assay; format: functional
structure (smiles),measurement,setting,value
Cl.NC[C@H]1O[C@H](O[C@H]2[C@H](OCc3ccccc3)[C@@H](O[C@H]3O[C@H](COCc4ccccc4)[C@@H](OCc4ccccc4)[C@H](N)[C@H]3OCc3ccccc3)[C@H](N)C[C@@H]2N)[C@H](N)C[C@@H]1OCc1ccccc1,fractional inhibitory concentration index (FICI),[1],1.25
same,MIC,[2],128 µg/mL
same,MIC,[3],16 µg/mL
same,MIC,[4],0.004 µg/mL
same,fractional inhibitory concentration index (FICI),[5],1.063
same,fold change (FC),[6],1
same,MIC,[7],8 µg/mL
same,MIC,[8],128 µg/mL
same,MIC,[9],8 µg/mL
same,fractional inhibitory concentration index (FICI),[10],1.063
same,MIC,[11],64 µg/mL
same,fold change (FC),[12],1
same,MIC,[13],64 µg/mL
same,fractional inhibitory concentration index (FICI),[14],1.063
same,fractional inhibitory concentration index (FICI),[15],0.125
same,MIC,[16],8 µg/mL
same,MIC,[17],0.002 µg/mL
same,MIC,[18],8 µg/mL
same,fractional inhibitory concentration index (FICI),[19],1.063
same,MIC,[20],256 µg/mL
same,MIC,[21],128 µg/mL
same,fold change (FC),[22],1
same,fold change (FC),[23],1
same,MIC,[24],0.004 µg/mL
same,fractional inhibitory concentration index (FICI),[25],1.063
same,MIC,[26],64 µg/mL
same,MIC,[27],8 µg/mL
same,MIC,[28],0.008 µg/mL
same,MIC,[29],8 µg/mL
same,MIC,[30],8 µg/mL
same,Activity,[31],inactive
same,fold change (FC),[32],4
same,MIC,[33],128 µg/mL
same,fractional inhibitory concentration index (FICI),[34],0.251
same,fold change (FC),[35],1
